Our source for the EC50 values is publication PMC5553892, “A fourth subtype of retinoic acid receptor-related orphan receptors is activated by oxidized all-trans retinoic acid in medaka (Oryzias latipes)” (Zoological Letters, 2017).

Common to all, as to assay type: cell-based
The target of assay [1] is T1, RORd1 (Oryzias latipes, UniProt H2LFF5).
T1 construct: gene rorca
T1 sequence (H2LFF5 98-473): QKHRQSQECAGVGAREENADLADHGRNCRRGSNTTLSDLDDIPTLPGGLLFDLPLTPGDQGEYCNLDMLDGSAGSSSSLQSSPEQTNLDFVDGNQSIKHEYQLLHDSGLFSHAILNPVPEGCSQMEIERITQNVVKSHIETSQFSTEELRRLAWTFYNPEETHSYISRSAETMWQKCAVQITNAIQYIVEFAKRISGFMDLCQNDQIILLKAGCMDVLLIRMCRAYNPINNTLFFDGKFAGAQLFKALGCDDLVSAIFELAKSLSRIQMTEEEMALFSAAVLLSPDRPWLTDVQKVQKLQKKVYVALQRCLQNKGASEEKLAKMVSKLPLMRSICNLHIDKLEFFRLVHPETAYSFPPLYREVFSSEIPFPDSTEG
The experiment in a line: Gal4-RORd1 LBD luciferase reporter assay in stable HEK293 cells (agonist). For orientation: Reporter assays use an easily measured gene product as a stand-in for the process of interest.

In assay [2] the target is T1, RORd1. Put plainly: Gal4-RORd1 LBD luciferase reporter assay in stable HEK293 cells (weak agonist, […], EC50 not calculable).
Assay [3] deals with T1, RORd1. The assay is described as above. The source holds these as a separate data set.

What is called EC50 is the concentration that produces a half-maximal response. The compound `CC1=C(/C=C/C(C)=C/C=C/C(C)=C/C(=O)O)C(C)(C)CCC1=O` [4 K–ATRA, all-trans 4-ketoretinoic acid] gave an EC50 in assay [1] of 737 ± 47.3 nM.

Take `CC1=C(/C=C/C(C)=C/C=C/C(C)=C/C(=O)O)C(C)(C)CCC1O` (stereo not drawn) [4OH-ATRA, all-trans 4-hydroxyretinoic acid]: the EC50 in assay [1] was 539 ± 97.3 nM.

`CC(/C=C/C12OC1(C)CCCC2(C)C)=C\C=C\C(C)=C\C(=O)O` (stereo not drawn) [5,6E–ATRA, all-trans 5,6-epoxyretinoic acid]: the EC50 in assay [2] is greater than 10 µM.

In the case of `CC1=C(/C=C/C(C)=C/C=C/C(C)=C/C(=O)O)C(C)(C)CCC1` [ATRA, all-trans retinoic acid], the EC50 in assay [3] was greater than 10 µM.
